Assay results reported in US20220053762A1, “HERBICIDAL COMPOSITIONS” (Bayer Aktiengesellschaft, priority 2018, published 2022).

Test system: harmful plant species
Test: Specific trial examples: binary compositions applied by the post-emergence method, synergistic effect according to Colby (Tables 3.1-3.2)
Format: in vivo
Method in brief: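 Mono- and dicot weeds grown from seed or rhizome in sandy loam in greenhouse, sprayed post-emergence at three-leaf stage (three weeks after sowing) with formulated binary mixtures at various doses in 300–800 l/ha water. Efficacy rated at stated days after application; synergy judged versus summed single effects and Colby expected values.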

For `CONC(=O)C1=C[C@@H](NC(=O)[C@@]2(C)CC(c3cc(F)cc(F)c3)=NO2)CO1` [Compound A5, (5R)-3-(3,5-difluorophenyl)-N-[(3R)-5-(methoxycarbamoyl)-2,3-dihydrofuran-3-yl]-5-methyl-4H-isoxazole-5-carboxamide], the “Herbicidal action 14 DAT against Lolium rigidum (resistant biotype)” value (“Herbicidal action 14 DAT … (resistant biotype)” for short) (1 g a.i./ha) was 10%, the “Herbicidal action 14 DAT against Matricaria inodora” value (1 g a.i./ha) was 30% and the “Herbicidal action 14 DAT against Viola tricolor” value (1 g a.i./ha) was 30%. For the same molecule, the “Herbicidal action 28 DAT against Centaurea cyanus” value (1 g a.i./ha) was 10%, the “Herbicidal action 28 DAT against Galium aparine” value (1 g a.i./ha) was 30% and the “Herbicidal action 28 DAT against Lamium purpureum L.” value (1 g a.i./ha) was 40%. For the same molecule, the “Herbicidal action 28 DAT against Matricaria inodora” value (1 g a.i./ha) was 0%, the “Herbicidal action 28 DAT against Viola tricolor” value (1 g a.i./ha) was 0% and the “Herbicidal action 14 DAT … (resistant biotype)” value (4 g a.i./ha) was 20%. For the same molecule, the “Herbicidal action 14 DAT against Matricaria inodora” value (4 g a.i./ha) was 50%, the “Herbicidal action 14 DAT against Viola tricolor” value (4 g a.i./ha) was 20% and the “Herbicidal action 28 DAT against Centaurea cyanus” value (4 g a.i./ha) was 20%. The “Herbicidal action 28 DAT against Matricaria inodora” value (4 g a.i./ha) was 10%, the “Herbicidal action 28 DAT against Phalaris minor” value (4 g a.i./ha) was 30% and the “Herbicidal action 28 DAT against Viola tricolor” value (4 g a.i./ha) was 0%. For the same molecule, the “Herbicidal action 14 DAT against Alopecurus myosuroides” value (16 g a.i./ha) was 70%, the “Herbicidal action 14 DAT against Lolium rigidum” value (16 g a.i./ha) was 60% and the “Herbicidal action 14 DAT … (resistant biotype)” value (16 g a.i./ha) was 30%. For the same molecule, the “Herbicidal action 14 DAT against Matricaria inodora” value (16 g a.i./ha) was 50%, the “Herbicidal action 14 DAT against Poa annua L.” value (16 g a.i./ha) was 30% and the “Herbicidal action 28 DAT against Alopecurus myosuroides” value (16 g a.i./ha) was 40%. For the same molecule, the “Herbicidal action 28 DAT against Centaurea cyanus” value (16 g a.i./ha) was 50%, the “Herbicidal action 28 DAT against Lamium purpureum L.” value (16 g a.i./ha) was 60% and the “Herbicidal action 28 DAT against Matricaria inodora” value (16 g a.i./ha) was 20%. For the same molecule, the “Herbicidal action 28 DAT against Phalaris minor” value (16 g a.i./ha) was 40%, the “Herbicidal action 28 DAT against Viola tricolor” value (16 g a.i./ha) was 10% and the “Herbicidal action against Lolium rigidum” value ((Z119) 14 DAT, g a.i./ha: r682 16, r683 30) was 60%. The “Herbicidal action against Phalaris minor” value ((Z119) 14 DAT, g a.i./ha: r709 4, r710 270) was 70%, the “Herbicidal action against Poa annua L.” value ((Z119) 14 DAT, g a.i./ha: r729 4, r730 270) was 20% and the “Herbicidal action against Alopecurus myosuroides” value ((Z119) 28 DAT, g a.i./ha: r642 16, r643 4, r644 90, r645 30, r646 270) was 40%. For the same molecule, the “Herbicidal action against Centaurea cyanus” value ((Z119) 28 DAT, g a.i./ha: r654 16, r655 30) was 50%, the “Herbicidal action against Galium aparine” value ((Z119) 28 DAT, g a.i./ha: r662 1, r663 270) was 30% and the “Herbicidal action against Lolium rigidum” value ((Z119) 28 DAT, g a.i./ha: r690 16, r691 30) was 30%. For the same molecule, the “Herbicidal action in [%] 28 DAT against Alopecurus myosuroides” value (post-emergence, single active compound (A5 series), g a.i./ha: r591 16, r592 4, r593 450, r594 150, r595 50) was 40%, the “Herbicidal action in [%] 28 DAT against Bromus sterilis” value (post-emergence, single active compound (A5 series), g a.i./ha: r617 4, r618 450) was 60% and the “Herbicidal action in [%] 14 DAT against Galium aparine” value (post-emergence, single active compound (A5 series), g a.i./ha: r649 1, r650 150) was 50%. For the same molecule, the “Herbicidal action in [%] 14 DAT against Lamium purpureum L.” value (post-emergence, single active compound (A5 series), g a.i./ha: r659 1, r660 450) was 60%, the “Herbicidal action in [%] 28 DAT against Lamium purpureum L.” value (post-emergence, single active compound (A5 series), g a.i./ha: r669 1, r670 450) was 40% and the “Herbicidal action in [%] 28 DAT against Phalaris minor” value (post-emergence, single active compound (A5 series), g a.i./ha: r700 16, r701 450, r702 150) was 40%. For the same molecule, the “Herbicidal action in [%] 14 DAT against Poa annua L.” value (post-emergence, single active compound (A5 series), g a.i./ha: r710 16, r711 450, r712 150, r713 50) was 30%, the “Herbicidal action in [%] 28 DAT against Lolium rigidum” value (post-emergence, single active compound, g a.i./ha: r679 16, r680 150, r681 50) was 30% and the “Herbicidal action in [%] 14 DAT against Lolium rigidum (resistant bio type)” value (post-emergence, single active compound, g a.i./ha: r689 16, r690 450, r691 150, r692 50) was 30%. The “Herbicidal action in [%] 28 DAT against Poa annua L.” value (post-emergence, single active compound, g a.i./ha: r721 16, r722 450) was 20%.
